Experimental data taken from patent US10934310B2, “Inhibitors of Bruton's tyrosine kinase and method of their use” (JANSSEN PHARMACEUTICA NV, priority 2015, dated 2021).

Molecular target: unphosphorylated-BTK kinase domain (UP-BTK), GST-tagged human BTK (389-659aa) (Homo sapiens (Human), UniProt Q06187)
Assay: BTK Kinase Lanthascreen Binding Assay
Conditions: Lanthascreen binding, 60 minutes incubation; pIC50 = negative log of the IC50 in molar
Protocol: BTK Kinase Lanthascreen Binding Assay:
A BTK kinase lanthascreen binding assay monitors compound binding to unphosphorylated-BTK kinase domain (UP-BTK), by competing with a fluorescent labeled tracer. […] Data were analyzed using Xlfit™ version 5.3 from ID Business Solutions (Guildford), Microsoft Excel add-in. pIC50 refers to the negative log of the IC50 in molar.

unphosphorylated-BTK kinase domain (UP-BTK), GST-tagged human BTK (389-659aa), sequence (Q06187 389-659): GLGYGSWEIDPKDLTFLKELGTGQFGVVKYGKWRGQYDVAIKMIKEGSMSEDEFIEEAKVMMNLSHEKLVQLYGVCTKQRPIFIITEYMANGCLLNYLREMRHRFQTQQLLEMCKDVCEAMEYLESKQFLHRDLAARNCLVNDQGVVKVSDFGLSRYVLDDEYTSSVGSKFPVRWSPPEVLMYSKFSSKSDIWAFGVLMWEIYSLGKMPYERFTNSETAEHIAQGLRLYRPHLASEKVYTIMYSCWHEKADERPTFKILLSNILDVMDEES

BTK_I_binding pIC50 | Structure (SMILES)
6.40 | C=CC(=O)N[C@@H]1CCCC[C@@H]1NC(=O)c1sc2nccc3c2c1NC(=O)N3c1ccc(Oc2ccccc2)cc1C (single isomer, unassigned) [Example 451]
6.38 | Cc1cc(Oc2ccccc2)ccc1N1C(=O)Nc2c(C(=O)N[C@H]3CCC[C@H]3N)sc3nccc1c23 (single isomer, unassigned) [Example 452, N-((1S,2R)-2-Aminocyclopentyl)-5-(*S)-(2-methyl-4-phenoxyphenyl)-4-oxo-4,5-dihydro-3H-1-thia-3,5,8-triazaacenaphthylene-2-carboxamide]
7.63 | Cc1cc(CC(C)C)ncc1N1C(=O)Nc2c(C(=O)N[C@@H]3CCC[C@@H]3NC(=O)/C(C#N)=C/C3CC3)sc3nccc1c23 (single isomer, unassigned) [Example 466, N-((1R,2S)-2-((E)-2-Cyano-3-cyclopropylacrylamido)cyclopentyl)-5-(*S)-(6-isobutyl-4-methylpyridin-3-yl)-4-oxo-4,5-dihydro-3H-1-thia-3,5,8-triazaacenaphthylene-2-carboxamide]

Same assay, conditions: compound, 50 nM Tracer 236, 2 nM anti-GST antibody, 60 minutes; pIC50 = negative log of the IC50 in molar

BTK_I_binding pIC50 | Structure (SMILES)
7.36 | C=CC(=O)NC1CCC[C@@H](NC(=O)c2sc3nccc4c3c2NC(=O)N4c2ccc(Oc3ccccc3)cc2C)C1 (stereo in doubt) [Example 2, N-((1R,3S)-3-Acrylamidocyclohexyl)-5-(2-methyl-4-phenoxyphenyl)-4-oxo-4,5-dihydro-3H-1-thia-3,5,8-triazaacenaphthylene-2-carboxamide]
7.48 | C=CC(=O)NC1CCC[C@H]1NC(=O)c1sc2nccc3c2c1NC(=O)N3c1ccnc(-c2ccccc2)c1 (stereo in doubt) [Example 197, N-((1R,2R)-2-Acrylamidocyclopentyl)-4-oxo-5-(2-phenylpyridin-4-yl)-4,5-dihydro-3H-1-thia-3,5,8-triazaacenaphthylene-2-carboxamide]
7.42 | C=CC(=O)N[C@H]1CC[C@@H](NC(=O)c2sc3nccc4c3c2NC(=O)N4c2ccc(Oc3ccccc3)cc2C)CC1 [Example 3, N-((1S,4S)-4-Acrylamidocyclohexyl)-5-(2-methyl-4-phenoxyphenyl)-4-oxo-4,5-dihydro-3H-1-thia-3,5,8-triazaacenaphthylene-2-carboxamide]
7.48 | Cc1cc(Oc2ccccc2)ccc1N1C(=O)Nc2c(C(=O)N[C@@H]3CCC[C@@H]3O)sc3nccc1c23 [Example 6, N-((1R,2S)-2-Hydroxycyclopentyl)-5-(2-methyl-4-phenoxyphenyl)-4-oxo-4,5-dihydro-3H-1-thia-3,5,8-triazaacenaphthylene-2-carboxamide]
7.41 | Cc1cc(Oc2ccccc2)ccc1N1C(=O)Nc2c(C(=O)N[C@@H]3CCC[C@H]3O)sc3nccc1c23 [Example 9, N-((1R,2R)-2-Hydroxycyclopentyl)-5-(2-methyl-4-phenoxyphenyl)-4-oxo-4,5-dihydro-3H-1-thia-3,5,8-triazaacenaphthylene-2-carboxamide]
7.35 | Cc1cc(Oc2ccccc2)ccc1N1C(=O)Nc2c(C(=O)N[C@@H]3CCCC[C@@H]3N)sc3nccc1c23 [Example 10, N-((1R,2S)-2-Aminocyclohexyl)-5-(2-methyl-4-phenoxyphenyl)-4-oxo-4,5-dihydro-3H-1-thia-3,5,8-triazaacenaphthylene-2-carboxamide]
7.24 | CC(=O)N[C@@H]1CCC[C@H]1NC(=O)c1sc2nccc3c2c1NC(=O)N3c1ccc(Oc2ccccc2)cc1C [Example 11, N-((1R,2R)-2-Acetamidocyclopentyl)-5-(2-methyl-4-phenoxyphenyl)-4-oxo-4,5-dihydro-3H-1-thia-3,5,8-triazaacenaphthylene-2-carboxamide]
7.03 | Cc1cc(Oc2ccccc2)ccc1N1C(=O)Nc2c(C(=O)N[C@@H]3CCC[C@@H]3N)sc3nccc1c23 [Example 12, N-((1R,2S)-2-Aminocyclopentyl)-5-(2-methyl-4-phenoxyphenyl)-4-oxo-4,5-dihydro-3H-1-thia-3,5,8-triazaacenaphthylene-2-carboxamide]
6.94 | C=CC(=O)N[C@H]1CC[C@H](NC(=O)c2sc3nccc4c3c2NC(=O)N4c2ccc(Oc3ccccc3)cc2C)CC1 [Example 13, N-((1R,4R)-4-Acrylamidocyclohexyl)-5-(2-methyl-4-phenoxyphenyl)-4-oxo-4,5-dihydro-3H-1-thia-3,5,8-triazaacenaphthylene-2-carboxamide]
6.99 | CO[C@H]1CC[C@H](NC(=O)c2sc3nccc4c3c2NC(=O)N4c2ccc(Oc3ccccc3)cc2C)CC1 [Example 18, N-((1R,4R)-4-Methoxycyclohexyl)-5-(2-methyl-4-phenoxyphenyl)-4-oxo-4,5-dihydro-3H-1-thia-3,5,8-triazaacenaphthylene-2-carboxamide]
6.63 | Cc1cc(Oc2ccccc2)ccc1N1C(=O)Nc2c(C(=O)N[C@H]3CC[C@@H](NC(=O)/C(C#N)=C/C4CC4)CC3)sc3nccc1c23 [Example 19, N-((1S,4S)-4-((E)-2-Cyano-3-cyclopropylacrylamido)cyclohexyl)-5-(2-methyl-4-phenoxyphenyl)-4-oxo-4,5-dihydro-3H-1-thia-3,5,8-triazaacenaphthylene-2-carboxamide]
7.02 | Cc1cc(Oc2ccccc2)ccc1N1C(=O)Nc2c(C(=O)N[C@H]3CCC[C@@H]3O)sc3nccc1c23 [Example 20, N-((1S,2S)-2-Hydroxycyclopentyl)-5-(2-methyl-4-phenoxyphenyl)-4-oxo-4,5-dihydro-3H-1-thia-3,5,8-triazaacenaphthylene-2-carboxamide]
6.85 | CN[C@@H]1CCC[C@H]1NC(=O)c1sc2nccc3c2c1NC(=O)N3c1ccc(Oc2ccccc2)cc1C [Example 21, 5-(2-Methyl-4-phenoxyphenyl)-N-((1R,2R)-2-(methylamino)cyclopentyl)-4-oxo-4,5-dihydro-3H-1-thia-3,5,8-triazaacenaphthylene-2-carboxamide]
7.13 | Cc1cc(Oc2ccccc2)ccc1N1C(=O)Nc2c(C(=O)N[C@@H]3CCC[C@H]3N)sc3nccc1c23 [Example 22, N-((1R,2R)-2-Aminocyclopentyl)-5-(2-methyl-4-phenoxyphenyl)-4-oxo-4,5-dihydro-3H-1-thia-3,5,8-triazaacenaphthylene-2-carboxamide]
6.77 | Cc1cc(Oc2ccccc2)ccc1N1C(=O)Nc2c(C(=O)N[C@H]3CC[C@@H](NC#N)CC3)sc3nccc1c23 [Example 23, N-((1S,4S)-4-Cyanamidocyclohexyl)-5-(2-methyl-4-phenoxyphenyl)-4-oxo-4,5-dihydro-3H-1-thia-3,5,8-triazaacenaphthylene-2-carboxamide]
6.59 | Cc1cc(Oc2ccccc2)ccc1N1C(=O)Nc2c(C(=O)N[C@@H]3CCC[C@H](N(C)C)C3)sc3nccc1c23 [Example 24, N-((1R,3S)-3-(Dimethylamino)cyclohexyl)-5-(2-methyl-4-phenoxyphenyl)-4-oxo-4,5-dihydro-3H-1-thia-3,5,8-triazaacenaphthylene-2-carboxamide]
6.66 | Cc1cc(Oc2ccccc2)ccc1N1C(=O)Nc2c(C(=O)N[C@H]3CC[C@@H](N)CC3)sc3nccc1c23 [Example 25, N-((1S,4S)-4-Aminocyclohexyl)-5-(2-methyl-4-phenoxyphenyl)-4-oxo-4,5-dihydro-3H-1-thia-3,5,8-triazaacenaphthylene-2-carboxamide]
6.69 | CCC(=O)N[C@@H]1CCC[C@H]1NC(=O)c1sc2nccc3c2c1NC(=O)N3c1ccc(Oc2ccccc2)cc1C [Example 26, 5-(2-Methyl-4-phenoxyphenyl)-4-oxo-N-((1R,2R)-2-propionamidocyclopentyl)-4,5-dihydro-3H-1-thia-3,5,8-triazaacenaphthylene-2-carboxamide]
6.67 | Cc1cc(Oc2ccccc2)ccc1N1C(=O)Nc2c(C(=O)NC3CCCC3)sc3nccc1c23 [Example 28, N-Cyclopentyl-5-(2-methyl-4-phenoxyphenyl)-4-oxo-4,5-dihydro-3H-1-thia-3,5,8-triazaacenaphthylene-2-carboxamide]
6.81 | Cc1cc(Oc2ccccc2)ccc1N1C(=O)Nc2c(C(=O)N[C@@H]3CCC[C@H]3N(C)C)sc3nccc1c23 [Example 29, N-((1R,2R)-2-(Dimethylamino)cyclopentyl)-5-(2-methyl-4-phenoxyphenyl)-4-oxo-4,5-dihydro-3H-1-thia-3,5,8-triazaacenaphthylene-2-carboxamide]

Structure (SMILES) | BTK_I_binding pIC50
Cc1cc(Oc2ccccc2)ccc1N1C(=O)Nc2c(C(=O)N[C@H]3CC[C@H](O)CC3)sc3nccc1c23 [Example 15, N-((1R,4R)-4-Hydroxycyclohexyl)-5-(2-methyl-4-phenoxyphenyl)-4-oxo-4,5-dihydro-3H-1-thia-3,5,8-triazaacenaphthylene-2-carboxamide] | 7.21
Cc1cc(Oc2ccccc2)ccc1N1C(=O)Nc2c(C(=O)N[C@H]3CC[C@@H](O)CC3)sc3nccc1c23 [Example 16, N-((1S,4S)-4-Hydroxycyclohexyl)-5-(2-methyl-4-phenoxyphenyl)-4-oxo-4,5-dihydro-3H-1-thia-3,5,8-triazaacenaphthylene-2-carboxamide] | 7.14

Same assay, conditions: read-out: BTK_I_binding pIC50 (converted)

IC50 [nM] | Structure (SMILES)
229 | Cc1cc(CC(C)C)ncc1N1C(=O)Nc2c(C(=O)N[C@@H]3CCC[C@@H]3NC(=O)/C=C/CNC(=O)CCCC(=O)NCCCOCCOCCOCCCNC(=O)CCCC[C@@H]3SC[C@@H]4NC(=O)N[C@@H]43)sc3nccc1c23 (single isomer, unassigned) [Example 464]
120 | Cc1cc(Oc2ccccc2)ccc1N1C(=O)Nc2c(C(=O)N[C@@H]3CCC[C@@H]3N(C)C)sc3nccc1c23 [Example 17, N-((1R,2S)-2-(Dimethylamino)cyclopentyl)-5-(2-methyl-4-phenoxyphenyl)-4-oxo-4,5-dihydro-3H-1-thia-3,5,8-triazaacenaphthylene-2-carboxamide]
